Laboratory results: the kinase profiling compilation of Christmann-Franck et al. (2016)

Assays:
Assay in all cases: radiometric filter-binding kinase assay, Kinase HotSpot
Conditions in all cases: compound 0.5 µM; ATP 10 µM
[1] = molecular target: ABL2 (human) (UniProt P42684)
[2] = molecular target: AKT1 (human) (UniProt P31749)
[3] = molecular target: ALK (human) (UniProt Q9UM73)
[4] = molecular target: AURKA (human) (UniProt O14965)
[5] = molecular target: BTK (human) (UniProt Q06187)
[6] = molecular target: CAMK2A (human) (UniProt Q9UQM7)
[7] = molecular target: CDC42BPA (human) (UniProt Q5VT25)
[8] = molecular target: CDC42BPB (human) (UniProt Q9Y5S2)
[9] = molecular target: CDK4 CCND1 (human) (UniProt P24385+P11802)
[10] = molecular target: CDK5 CDK5R1 p35 (human) (UniProt Q00535+Q15078)
[11] = molecular target: DMPK (human) (UniProt Q09013)
[12] = molecular target: DYRK1B (human) (UniProt Q9Y463)
[13] = molecular target: EPHA8 (human) (UniProt P29322)
[14] = molecular target: EPHB2 (human) (UniProt P29323)
[15] = molecular target: FGFR1 (human) (UniProt P11362)
[16] = molecular target: FGFR2 (human) (UniProt P21802)
[17] = molecular target: FGR (human) (UniProt P09769)
[18] = molecular target: GRK4 (human) (UniProt P32298)
[19] = molecular target: GSG2 (human) (UniProt Q8TF76)
[20] = molecular target: IRAK1 (human) (UniProt P51617)
[21] = molecular target: JAK1 JH1 catalytic (human) (UniProt P23458)
[22] = molecular target: JAK3 JH1 JH2 (human) (UniProt P52333)
[23] = molecular target: MAP2K1 (human) (UniProt Q02750)
[24] = molecular target: MAPK10 (human) (UniProt P53779)
[25] = molecular target: MAPK9 (human) (UniProt P45984)
[26] = molecular target: MYO3B (human) (UniProt Q8WXR4)
[27] = molecular target: NEK2 (human) (UniProt P51955)
[28] = molecular target: NTRK1 (human) (UniProt P04629)
[29] = molecular target: OXSR1 (human) (UniProt O95747)
[30] = molecular target: PAK7 (human) (UniProt Q9P286)
[31] = molecular target: PLK2 (human) (UniProt Q9NYY3)
[32] = molecular target: PRKCD (human) (UniProt Q05655)
[33] = molecular target: PRKD1 (human) (UniProt Q15139)
[34] = molecular target: RPS6KA1 KD1 KD2 (human) (UniProt Q15418)
[35] = molecular target: RPS6KA4 KD2 (human) (UniProt O75676)
[36] = molecular target: RPS6KB2 (human) (UniProt Q9UBS0)
[37] = molecular target: SIK2 (human) (UniProt Q9H0K1)
[38] = molecular target: SRPK3 (human) (UniProt Q9UPE1)
[39] = molecular target: TAOK2 (human) (UniProt Q9UL54)
[40] = molecular target: TLK2 (human) (UniProt Q86UE8)
[41] = molecular target: TNK2 (human) (UniProt Q07912)
[42] = molecular target: WEE1 (human) (UniProt P30291)

PRKCD (human), sequence (Q05655 whole entry, looked up): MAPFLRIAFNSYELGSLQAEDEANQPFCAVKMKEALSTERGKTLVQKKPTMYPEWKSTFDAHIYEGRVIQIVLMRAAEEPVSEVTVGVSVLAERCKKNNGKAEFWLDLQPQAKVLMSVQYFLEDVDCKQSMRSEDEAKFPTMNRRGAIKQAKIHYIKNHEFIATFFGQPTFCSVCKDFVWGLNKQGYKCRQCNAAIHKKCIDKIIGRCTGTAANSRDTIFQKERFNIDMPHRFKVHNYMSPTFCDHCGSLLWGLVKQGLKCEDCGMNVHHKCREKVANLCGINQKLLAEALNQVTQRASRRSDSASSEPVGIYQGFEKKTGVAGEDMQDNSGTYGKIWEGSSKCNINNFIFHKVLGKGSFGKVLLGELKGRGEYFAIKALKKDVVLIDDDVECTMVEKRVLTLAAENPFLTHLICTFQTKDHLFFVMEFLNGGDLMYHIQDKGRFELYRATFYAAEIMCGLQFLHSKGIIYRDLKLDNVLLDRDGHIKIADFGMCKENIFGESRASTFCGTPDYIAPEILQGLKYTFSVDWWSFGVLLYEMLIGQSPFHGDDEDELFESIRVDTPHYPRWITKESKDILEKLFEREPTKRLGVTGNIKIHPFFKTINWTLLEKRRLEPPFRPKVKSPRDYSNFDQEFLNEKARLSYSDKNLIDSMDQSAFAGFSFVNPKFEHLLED
DMPK (human), sequence (Q09013 whole entry, looked up): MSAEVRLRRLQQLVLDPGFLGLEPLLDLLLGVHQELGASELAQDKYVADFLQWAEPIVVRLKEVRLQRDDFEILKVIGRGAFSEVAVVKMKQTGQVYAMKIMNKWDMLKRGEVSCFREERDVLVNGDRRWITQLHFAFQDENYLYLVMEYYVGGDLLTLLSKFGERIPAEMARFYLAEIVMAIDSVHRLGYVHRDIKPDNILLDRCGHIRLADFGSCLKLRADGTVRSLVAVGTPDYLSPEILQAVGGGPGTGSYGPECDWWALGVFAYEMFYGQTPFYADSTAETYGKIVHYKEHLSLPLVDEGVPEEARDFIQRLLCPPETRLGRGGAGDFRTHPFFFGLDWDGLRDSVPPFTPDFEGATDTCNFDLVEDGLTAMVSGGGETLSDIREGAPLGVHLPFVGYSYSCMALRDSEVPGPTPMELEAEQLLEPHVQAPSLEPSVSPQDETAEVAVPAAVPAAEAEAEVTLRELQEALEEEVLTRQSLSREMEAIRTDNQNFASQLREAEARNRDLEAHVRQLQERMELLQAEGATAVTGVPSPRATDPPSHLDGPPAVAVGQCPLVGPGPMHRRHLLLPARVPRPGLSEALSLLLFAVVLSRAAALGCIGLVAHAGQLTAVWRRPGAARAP
SRPK3 (human), sequence (Q9UPE1 whole entry, looked up): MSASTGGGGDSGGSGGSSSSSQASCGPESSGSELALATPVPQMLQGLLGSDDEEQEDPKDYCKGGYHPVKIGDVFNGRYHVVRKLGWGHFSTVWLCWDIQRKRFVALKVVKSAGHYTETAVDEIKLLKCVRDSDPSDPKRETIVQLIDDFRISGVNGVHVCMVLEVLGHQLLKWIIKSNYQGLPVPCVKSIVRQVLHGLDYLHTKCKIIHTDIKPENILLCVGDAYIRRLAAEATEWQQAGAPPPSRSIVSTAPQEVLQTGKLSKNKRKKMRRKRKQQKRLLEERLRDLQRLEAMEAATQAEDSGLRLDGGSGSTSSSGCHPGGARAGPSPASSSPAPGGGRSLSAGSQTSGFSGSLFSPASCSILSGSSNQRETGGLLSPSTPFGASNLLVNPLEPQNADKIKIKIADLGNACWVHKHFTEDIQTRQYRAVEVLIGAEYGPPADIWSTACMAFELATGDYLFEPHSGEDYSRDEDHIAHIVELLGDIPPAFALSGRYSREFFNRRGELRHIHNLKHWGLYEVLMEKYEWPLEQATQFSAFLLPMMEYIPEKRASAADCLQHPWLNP
TLK2 (human), sequence (Q86UE8 whole entry, looked up): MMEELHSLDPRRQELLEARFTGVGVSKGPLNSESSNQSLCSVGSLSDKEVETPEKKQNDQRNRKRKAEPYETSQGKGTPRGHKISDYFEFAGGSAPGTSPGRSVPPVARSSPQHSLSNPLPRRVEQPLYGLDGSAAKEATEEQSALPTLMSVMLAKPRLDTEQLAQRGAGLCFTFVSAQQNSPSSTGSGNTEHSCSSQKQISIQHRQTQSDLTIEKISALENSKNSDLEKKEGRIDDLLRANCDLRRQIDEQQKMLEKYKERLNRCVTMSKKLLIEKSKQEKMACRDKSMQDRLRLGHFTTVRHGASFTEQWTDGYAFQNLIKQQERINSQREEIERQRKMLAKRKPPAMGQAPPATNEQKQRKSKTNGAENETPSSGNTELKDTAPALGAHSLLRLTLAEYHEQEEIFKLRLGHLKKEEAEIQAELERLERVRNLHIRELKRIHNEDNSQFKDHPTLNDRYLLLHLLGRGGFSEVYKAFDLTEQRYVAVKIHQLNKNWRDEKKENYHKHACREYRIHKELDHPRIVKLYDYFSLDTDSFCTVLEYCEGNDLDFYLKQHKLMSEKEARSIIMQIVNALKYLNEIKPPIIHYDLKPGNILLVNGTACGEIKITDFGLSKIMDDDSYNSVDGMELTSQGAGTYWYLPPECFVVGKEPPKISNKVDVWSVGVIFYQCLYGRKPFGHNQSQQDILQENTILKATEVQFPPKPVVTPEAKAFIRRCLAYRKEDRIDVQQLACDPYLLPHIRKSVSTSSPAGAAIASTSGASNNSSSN
OXSR1 (human), sequence (O95747 whole entry, looked up): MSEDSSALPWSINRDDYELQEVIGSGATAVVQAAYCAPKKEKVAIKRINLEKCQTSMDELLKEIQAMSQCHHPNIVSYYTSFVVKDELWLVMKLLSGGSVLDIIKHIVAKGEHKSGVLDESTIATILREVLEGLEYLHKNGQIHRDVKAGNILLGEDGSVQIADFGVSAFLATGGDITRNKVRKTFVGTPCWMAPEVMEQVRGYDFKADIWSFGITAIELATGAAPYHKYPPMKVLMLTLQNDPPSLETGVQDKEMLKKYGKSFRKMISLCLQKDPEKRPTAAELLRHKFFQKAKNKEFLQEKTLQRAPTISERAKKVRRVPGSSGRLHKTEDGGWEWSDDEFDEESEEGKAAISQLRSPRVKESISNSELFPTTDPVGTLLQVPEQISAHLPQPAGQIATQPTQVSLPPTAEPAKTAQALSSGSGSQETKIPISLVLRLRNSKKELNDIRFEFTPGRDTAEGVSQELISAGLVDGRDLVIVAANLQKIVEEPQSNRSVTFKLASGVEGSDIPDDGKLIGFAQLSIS
ABL2 (human), sequence (P42684 whole entry, looked up): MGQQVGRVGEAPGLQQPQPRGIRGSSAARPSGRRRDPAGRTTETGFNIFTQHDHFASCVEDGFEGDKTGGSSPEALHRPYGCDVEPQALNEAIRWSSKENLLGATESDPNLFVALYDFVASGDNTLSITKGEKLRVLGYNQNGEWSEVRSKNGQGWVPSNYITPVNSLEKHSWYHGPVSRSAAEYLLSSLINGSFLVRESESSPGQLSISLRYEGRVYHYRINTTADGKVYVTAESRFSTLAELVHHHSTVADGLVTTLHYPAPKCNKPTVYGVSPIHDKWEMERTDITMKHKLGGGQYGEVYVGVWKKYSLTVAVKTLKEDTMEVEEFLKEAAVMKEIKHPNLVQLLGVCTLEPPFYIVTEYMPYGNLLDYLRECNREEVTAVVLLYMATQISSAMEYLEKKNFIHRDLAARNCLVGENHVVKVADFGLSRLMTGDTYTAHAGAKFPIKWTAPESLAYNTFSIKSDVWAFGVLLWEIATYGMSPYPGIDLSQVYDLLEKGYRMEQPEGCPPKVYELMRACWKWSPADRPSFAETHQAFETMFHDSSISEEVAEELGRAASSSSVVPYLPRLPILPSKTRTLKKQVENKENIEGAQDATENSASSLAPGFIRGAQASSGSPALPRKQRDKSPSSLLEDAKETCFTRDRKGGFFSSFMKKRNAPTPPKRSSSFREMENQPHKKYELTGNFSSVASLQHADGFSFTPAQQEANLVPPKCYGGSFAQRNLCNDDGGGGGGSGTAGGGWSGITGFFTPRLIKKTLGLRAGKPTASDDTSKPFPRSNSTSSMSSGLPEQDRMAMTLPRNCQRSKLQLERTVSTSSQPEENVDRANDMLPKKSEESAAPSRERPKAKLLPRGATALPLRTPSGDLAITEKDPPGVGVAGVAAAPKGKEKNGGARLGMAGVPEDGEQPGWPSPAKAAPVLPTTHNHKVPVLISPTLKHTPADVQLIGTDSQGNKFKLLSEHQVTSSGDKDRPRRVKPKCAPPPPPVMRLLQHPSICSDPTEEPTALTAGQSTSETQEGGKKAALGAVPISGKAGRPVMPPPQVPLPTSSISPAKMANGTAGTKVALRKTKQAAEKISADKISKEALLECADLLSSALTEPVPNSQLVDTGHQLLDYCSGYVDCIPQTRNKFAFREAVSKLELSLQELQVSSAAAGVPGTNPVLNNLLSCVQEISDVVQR
DYRK1B (human), sequence (Q9Y463 whole entry, looked up): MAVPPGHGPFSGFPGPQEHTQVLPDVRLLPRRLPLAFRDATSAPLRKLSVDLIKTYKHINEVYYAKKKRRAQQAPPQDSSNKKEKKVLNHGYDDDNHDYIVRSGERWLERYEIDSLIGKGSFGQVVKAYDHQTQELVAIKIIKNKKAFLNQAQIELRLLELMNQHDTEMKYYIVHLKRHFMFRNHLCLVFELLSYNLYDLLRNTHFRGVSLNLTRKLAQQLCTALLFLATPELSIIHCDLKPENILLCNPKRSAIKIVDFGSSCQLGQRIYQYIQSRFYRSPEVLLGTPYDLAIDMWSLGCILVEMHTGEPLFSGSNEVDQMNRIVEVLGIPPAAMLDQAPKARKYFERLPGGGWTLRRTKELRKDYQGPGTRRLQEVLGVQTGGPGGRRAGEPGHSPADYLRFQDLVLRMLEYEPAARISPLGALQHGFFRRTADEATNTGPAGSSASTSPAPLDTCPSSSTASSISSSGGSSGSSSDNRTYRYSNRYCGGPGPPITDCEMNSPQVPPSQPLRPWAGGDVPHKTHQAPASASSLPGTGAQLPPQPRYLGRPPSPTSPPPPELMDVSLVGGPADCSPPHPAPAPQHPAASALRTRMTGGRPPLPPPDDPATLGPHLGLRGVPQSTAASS

## Oc1cccc(-c2nc(N3CCOCC3)c3oc4ncccc4c3n2)c1
[1]
  residual activity: 94.9%
[2]
  residual activity: 95.3%
[3]
  residual activity: 90.5%
[4]
  residual activity: 91.9%
[5]
  residual activity: 95.2%
[6]
  residual activity: 93.7%
[7]
  residual activity: 94.5%
[8]
  residual activity: 99.4%
[9]
  residual activity: 102%
[10]
  residual activity: 101%
[11]
  residual activity: 99.5%
[12]
  residual activity: 98.9%
[13]
  residual activity: 93.9%
[14]
  residual activity: 88.6%
[15]
  residual activity: 91.7%
[16]
  residual activity: 95.7%
[17]
  residual activity: 94.8%
[18]
  residual activity: 102%
[19]
  residual activity: 90.3%
[20]
  residual activity: 84.2%
[21]
  residual activity: 104%
[22]
  residual activity: 99%
[23]
  residual activity: 97.7%
[24]
  residual activity: 102%
[25]
  residual activity: 89.4%
[26]
  residual activity: 81.3%
[27]
  residual activity: 88.6%
[28]
  residual activity: 94.9%
[29]
  residual activity: 93.2%
[30]
  residual activity: 92.8%
[31]
  residual activity: 94.7%
[32]
  residual activity: 96%
[33]
  residual activity: 98.3%
[34]
  residual activity: 79.5%
[35]
  residual activity: 104%
[36]
  residual activity: 95.8%
[37]
  residual activity: 98.9%
[38]
  residual activity: 95%
[39]
  residual activity: 92.2%
[40]
  residual activity: 102%
[41]
  residual activity: 89.6%
[42]
  residual activity: 81.6%

## CCCC(=O)Oc1ccc2[nH]c(C(=O)c3cc4ccccc4[nH]3)cc2c1
[1]
  residual activity: 96.3%
[2]
  residual activity: 102%
[3]
  residual activity: 83.7%
[4]
  residual activity: 94.6%
[5]
  residual activity: 88.2%
[6]
  residual activity: 87%
[7]
  residual activity: 98%
[8]
  residual activity: 99.5%
[9]
  residual activity: 106%
[10]
  residual activity: 97.5%
[11]
  residual activity: 94.4%
[12]
  residual activity: 103%
[13]
  residual activity: 98%
[14]
  residual activity: 98.4%
[15]
  residual activity: 96%
[16]
  residual activity: 100%
[17]
  residual activity: 88.4%
[18]
  residual activity: 93.7%
[19]
  residual activity: 99.2%
[20]
  residual activity: 90.5%
[21]
  residual activity: 104%
[22]
  residual activity: 95.6%
[23]
  residual activity: 99.9%
[24]
  residual activity: 100%
[25]
  residual activity: 76%
[26]
  residual activity: 98.6%
[27]
  residual activity: 86.8%
[28]
  residual activity: 98.6%
[29]
  residual activity: 92.4%
[30]
  residual activity: 91%
[31]
  residual activity: 101%
[32]
  residual activity: 88.8%
[33]
  residual activity: 88.7%
[34]
  residual activity: 91.3%
[35]
  residual activity: 99.1%
[36]
  residual activity: 102%
[37]
  residual activity: 97.6%
[38]
  residual activity: 93.2%
[39]
  residual activity: 110%
[40]
  residual activity: 97.1%
[41]
  residual activity: 77.7%
[42]
  residual activity: 85.8%

## CCN(CC)CCNC(=O)c1c(C)[nH]c(/C=C2\C(=O)Nc3ccc(Cl)cc32)c1C
[1]
  residual activity: 46.8%
[2]
  residual activity: 102%
[3]
  residual activity: 3.45%
[4]
  residual activity: 80.3%
[5]
  residual activity: 58.3%
[6]
  residual activity: 3.6%
[7]
  residual activity: 60%
[8]
  residual activity: 96.1%
[9]
  residual activity: 74.1%
[10]
  residual activity: 86.2%
[11]
  residual activity: 102%
[12]
  residual activity: 47.5%
[13]
  residual activity: 99.5%
[14]
  residual activity: 87.5%
[15]
  residual activity: 20.3%
[16]
  residual activity: 29.3%
[17]
  residual activity: 11.5%
[18]
  residual activity: 80.8%
[19]
  residual activity: 82.9%
[20]
  residual activity: 14.1%
[21]
  residual activity: 65.8%
[22]
  residual activity: 39.3%
[23]
  residual activity: 33.1%
[24]
  residual activity: 104%
[25]
  residual activity: 109%
[26]
  residual activity: 41.3%
[27]
  residual activity: 77.2%
[28]
  residual activity: 8.73%
[29]
  residual activity: 80.1%
[30]
  residual activity: 58.9%
[31]
  residual activity: 91.2%
[32]
  residual activity: 90.4%
[33]
  residual activity: 11.3%
[34]
  residual activity: 13.1%
[35]
  residual activity: 59%
[36]
  residual activity: 91.6%
[37]
  residual activity: 42.7%
[38]
  residual activity: 92.8%
[39]
  residual activity: 72.6%
[40]
  residual activity: 79.6%
[41]
  residual activity: 22.6%
[42]
  residual activity: 94.8%

## N#C/C(=C(/N)Sc1ccc(N)cc1)c1ccccc1C(F)(F)F
[1]
  residual activity: 101%
[2]
  residual activity: 101%
[3]
  residual activity: 100%
[4]
  residual activity: 103%
[5]
  residual activity: 93.5%
[6]
  residual activity: 111%
[7]
  residual activity: 103%
[8]
  residual activity: 104%
[9]
  residual activity: 106%
[10]
  residual activity: 103%
[11]
  residual activity: 102%
[12]
  residual activity: 99.6%
[13]
  residual activity: 94.1%
[14]
  residual activity: 101%
[15]
  residual activity: 108%
[16]
  residual activity: 101%
[17]
  residual activity: 101%
[18]
  residual activity: 98.4%
[19]
  residual activity: 99.9%
[20]
  residual activity: 100%
[21]
  residual activity: 106%
[22]
  residual activity: 101%
[23]
  residual activity: 97.9%
[24]
  residual activity: 94.7%
[25]
  residual activity: 110%
[26]
  residual activity: 98.3%
[27]
  residual activity: 94.9%
[28]
  residual activity: 109%
[29]
  residual activity: 101%
[30]
  residual activity: 104%
[31]
  residual activity: 98.1%
[32]
  residual activity: 97.5%
[33]
  residual activity: 103%
[34]
  residual activity: 88.7%
[35]
  residual activity: 112%
[36]
  residual activity: 105%
[37]
  residual activity: 101%
[38]
  residual activity: 96.3%
[39]
  residual activity: 101%
[40]
  residual activity: 92.5%
[41]
  residual activity: 100%
[42]
  residual activity: 73.8%
